What was measured:
buffered rumen fluid = test: Rumen screen, in vitro ruminal volatile fatty acid ratio (Examples 15, 16); format: cell-based, steer; details: 10 ppm, Neg. Control 1.39
Protocol: Rumen fluid was removed from a fistulated steer and strained through a cheesecloth. An equal amount of pH 7 buffer was added to strained rumen fluid. After layering occurred, the lower layer was saved and again diluted with equal amount of buffer. Ten ml. portions of buffered rumen fluid were added to fermentation vessels containing 500 mg. fresh finely ground cattle ration, 1 mg cellubiose and a test compound listed in Table 1 below at the indicated concentration. The fermentation vesels were outfitted with one-way gas valves, placed in an incubator and shaken for 24 hours at 38° C. Fermentation was stopped by addition of 1 ml mercuric chloride. The liquid was decanted and analyzed for volatile fatty acids by gas chromatography. Test results are summarized in Table 1, wherein Bac=bacitracin.
The procedures of Example 15 were repeated in all essential details with the test compounds and concentrations listed in Table 1 below, as are the results of the test.

Eimeria tenella [1] = test: Anticoccidial activity in chickens inoculated with Eimeria tenella (Example 12); format: in vivo, chicken; details: for Cecal Bleeding / Gain/Bird Days 0-3 / Gain/Bird Days 4-10: regrouped part of Table 2
Procedure, shortened: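 Male Hubbard White Mountain broiler chicks got compound in starter feed at 80 or 120 g/ton from 7 days of age, 3 replicates of 5 birds, over a 10-day test.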

[2] = Weight gain and feed utilization efficiency in chicks, 11 days (Example 13); format: in vivo, chicken; design: key to Average Weight: average weight in grams; details: .00275% in rye basal diet
Protocol: (§1) This example describes experimetnal testing of complexes of the present invention as feed additives for improving weight gain or feed utilization efficiency in birds. Test animals were male meat-type chickens (Hubbard strain). Fluorescent room lights were on a 16 hours light/8 hours dark schedule. The chicks were allotted to the pens on the basis of weight classes, and chicks in the even numbered pens were wing banded. Group weights were obtained at the start and individual weights at the termination of the experiment. Chicks weighing between 55 and 65 grams were selected for the test. The test compounds were blended with a basal feed ration (shown in Table 2) at the indicated concentration. Birds fed […] and feed supplemented with zinc bacitracin (Baciferm® 50, International Minerals and Chemical Corp.) were used as controls. The test was continued for 11 days, after which individual weights, pen weight and feed consumption were recorded and analyzed.

[3] = Weight gain and feed utilization in chicks, 12 days (Example 14); format: in vivo, chicken; details: .0066% in feed
Protocol: as §1
All of the bacitracin-metal-polyether antibiotic complexes tested produced statistically significant increases in gains compared to the unmedicated basal ration.
The test involving test compounds 1 and 3-14 consisted of 5 replicates of 7 chicks and those involving test compound 2 consisted of 6 replicates of 7 chicks. The tests were continued for 12 days, after which individual weight gains and feed conusumption were recorded and analyzed.

Eimeria tenella [4] = test: Anticoccidial activity in chickens inoculated with Eimeria tenella oocysts (Example 11); format: in vivo; details: for Incidence of Bloody Droppings / Morbidity: 4th-6th day; for Morbidity: birds affected/birds in group; for Mortality: 4th-7th day, birds dead/birds in group; for F/G Day 0-3 / F/G Day 4-10: feed per gain
Procedure, shortened: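 Hubbard White Mountain male broiler chicks were dosed in feed at 80 and 120 g/ton from 7 days of age, in 3 replicates of 5 birds. Morbidity, mortality and bloody droppings were scored over 7 days of a 10-day test.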

## Bacitracin-Nickel-Lysocellin Complex [Example 4]
Buffered rumen fluid; Example 15, 24 hours at 38° C.
  A/P Ratio: 1.10
Buffered rumen fluid; Example 16
  A/P Ratio: .88
Eimeria tenella [1]; 14 g/ton Lasalocid (Approx.)
  Cecal Bleeding: Severe
  Gain/Bird Days 0-3: 63.3
  Gain/Bird Days 4-10: 164.1
Eimeria tenella [1]; 36 g/ton Lasalocid (Approx.)
  Cecal Bleeding: Slight-Moderate
  Gain/Bird Days 0-3: 59.5
  Gain/Bird Days 4-10: 187.4
Eimeria tenella [1]; 80 g/ton in feed
  Incidence of Bloody Droppings: Severe
  Morbidity: 9/15
  Mortality: 0/15
  F/G Day 0-3: 1.61
  Gain/Bird Grams Day 0-3: 63.3 Grams
  F/G Day 4-10: 1.91
  Gain/Bird Grams Day 4-10: 164.1 Grams
Eimeria tenella [1]; 80 gram per ton
  Cecal bleeding associated with E. tenella infections: severe
Eimeria tenella [1]; 80 gram per ton (lasalocid 24 gram per ton)
  weight gains compared with those of test compound 5 and lasalocid: appreciably higher
Eimeria tenella [1]; 120 g/ton in feed
  Morbidity: 5/15
  Mortality: 0/15
  F/G Day 0-3: 1.69
  Gain/Bird Grams Day 0-3: 59.5 Grams
  F/G Day 4-10: 1.72
  Gain/Bird Grams Day 4-10: 187.4 Grams
[2]; 11 days
  Average Gain: 217 g
  Gain/Feed Ratio: 62.8
[2]; Table 4
  Average Weight: 277.0
  Gain/Feed: 62.8
[2]; unmedicated = 100
  Average Gain Index: 105.4
  Gain/Feed Ratio Index: 98.5
[3]; 12 days
  Gain/Feed Data: .585
  Gains/gram Data: 197.2 gram
[3]; #1 = unmedicated
  Gain/Feed Index Relative to #1: 103.9
  Gains Index Relative to #1: 106.5
[3]; #2 = zinc bacitracin
  Gain/Feed Index Relative to #2: 98.2
  Gains Index Relative to #2: 94.1
Eimeria tenella [4]; 80 and 120 g/ton
  protection against cecal bleeding: only fair
Eimeria tenella [4]; 80 and 120 g/ton, this test
  bleeding: slight bleeding
Eimeria tenella [4]; 80 and 120 g/ton, mild E. tenella challenge
  anticoccidial activity (in words): performed well
Eimeria tenella [4]; 80 g/ton in feed
  Incidence of Bloody Droppings: Slight
  Morbidity: 2/15
  Mortality: 0/15
  Gain, Grams Day 0-3: 60.8 Grams
  Gain, Grams Day 4-10: 229.1 Grams
  F/G Day 0-3: 1.70
  F/G Day 4-10: 1.59
Eimeria tenella [4]; 120 g/ton in feed
  Incidence of Bloody Droppings: Slight
  Morbidity: 1/15
  Mortality: 1/15
  Gain, Grams Day 0-3: 58.6 Grams
  Gain, Grams Day 4-10: 227.7 Grams
  F/G Day 0-3: 1.70
  F/G Day 4-10: 1.59
Eimeria tenella [4]; 200 g/ton, in C-760 (another test)
  bleeding: no bleeding
